Data from patent US20250179103A1, “6-OXODECAHYDROPYRROLO[1,2-A][1,5]DIAZOCINE AND 6-OXODECAHYDRO-4H-PYRROLO[2,1-D][1,5]THIAZOCINE DERIVATIVES AS STAT3 AND STAT6 MODULATORS FOR THE TREATMENT OF CANCER AND INFLAMMATORY CONDITIONS” (Recludix Pharma, Inc., priority 2022, published 2025).

Assays:
[1] = target: T1, Recombinant STAT3 protein (STAT3(G127-I722)) (Homo sapiens, UniProt P40763); assay: STAT3 Fluorescence Polarization (FP) Assay; assay type: binding; settings: STAT3(G127-I722) 25 nM, probe 5-FAM-GpYLPQTV-NH2 2 nM, 45-minute incubation
T1 construct: Recombinant STAT3 protein (STAT3(G127-I722))
T1 sequence (P40763 127-722): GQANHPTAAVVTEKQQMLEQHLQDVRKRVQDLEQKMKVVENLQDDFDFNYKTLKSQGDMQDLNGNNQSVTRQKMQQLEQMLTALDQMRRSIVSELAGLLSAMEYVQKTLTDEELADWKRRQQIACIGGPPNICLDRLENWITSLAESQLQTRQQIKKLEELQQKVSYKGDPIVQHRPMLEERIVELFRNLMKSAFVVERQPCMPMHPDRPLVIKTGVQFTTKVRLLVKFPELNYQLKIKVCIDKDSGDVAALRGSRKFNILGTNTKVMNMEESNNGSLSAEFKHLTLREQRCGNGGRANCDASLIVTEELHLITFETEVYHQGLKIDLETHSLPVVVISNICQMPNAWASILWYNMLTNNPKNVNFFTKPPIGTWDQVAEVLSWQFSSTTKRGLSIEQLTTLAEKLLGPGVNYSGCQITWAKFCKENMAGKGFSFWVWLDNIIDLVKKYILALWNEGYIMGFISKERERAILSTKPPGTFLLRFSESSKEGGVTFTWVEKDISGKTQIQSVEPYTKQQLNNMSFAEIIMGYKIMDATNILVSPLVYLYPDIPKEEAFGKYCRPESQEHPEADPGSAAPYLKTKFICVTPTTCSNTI
How it was run: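 Fluorescence polarization after a 45-min room-temperature incubation measured compound displacement of a 2 nM fluorescein-labelled phosphotyrosine peptide (5-FAM-GpYLPQTV-NH2) from 25 nM recombinant STAT3(G127-I722). Buffer was 10 mM HEPES pH 7.4 with 1% DMSO final. IC50s were fitted by nonlinear regression of mP against log concentration.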

[2] = target: T2, Recombinant STAT6 protein (STAT6(W123-T658)) (Homo sapiens, UniProt P42226); assay: STAT6 Fluorescence Polarization (FP) Assay; assay type: binding; settings: STAT6(W123-T658) 250 nM, probe 5-FAM-ApYKPFQDLI-NH2 2 nM, 45-minute incubation
T2 construct: Recombinant STAT6 protein (STAT6(W123-T658))
T2 sequence (P42226 123-658): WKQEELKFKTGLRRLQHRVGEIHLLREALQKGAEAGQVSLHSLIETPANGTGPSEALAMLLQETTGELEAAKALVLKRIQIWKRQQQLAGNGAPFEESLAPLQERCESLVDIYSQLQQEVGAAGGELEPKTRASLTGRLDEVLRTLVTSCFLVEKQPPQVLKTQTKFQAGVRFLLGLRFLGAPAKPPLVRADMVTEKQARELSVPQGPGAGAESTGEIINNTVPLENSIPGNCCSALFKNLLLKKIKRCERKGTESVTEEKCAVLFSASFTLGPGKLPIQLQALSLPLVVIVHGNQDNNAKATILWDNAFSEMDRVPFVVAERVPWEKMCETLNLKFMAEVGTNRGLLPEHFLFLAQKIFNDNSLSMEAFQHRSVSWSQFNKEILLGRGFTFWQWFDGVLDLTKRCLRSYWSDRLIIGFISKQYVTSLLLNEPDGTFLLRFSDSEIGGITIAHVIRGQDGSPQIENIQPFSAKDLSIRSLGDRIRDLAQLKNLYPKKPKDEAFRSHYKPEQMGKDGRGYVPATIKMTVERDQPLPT
How it was run: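 Displacement of a fluorescent phosphotyrosine peptide (5-FAM-ApYKPFQDLI-NH2, 2 nM) from STAT6(W123-T658) (250 nM), 1% DMSO, pH 7.4 HEPES buffer. After 45 min at room temperature, polarization (mP) was plotted versus log compound concentration and fitted by nonlinear regression to give IC50.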

Structure (SMILES)	IC50 [1]	IC50 [2]
CC(=O)N1CC[C@H]2CC[C@@H](C(=O)N(C)c3ccc4nnccc4c3)N2C(=O)[C@@H](NC(=O)c2ccc3ccc(C(F)(F)P(=O)(O)O)cc3n2)C1 [Compound 118, ((2-(((5S,8S,10aR)-3-acetyl-8-(cinnolin-6-yl(methyl)carbamoyl)-6-oxodecahydropyrrolo[1,2-a][1,5]diazocin-5-yl)carbamoyl)quinolin-7-yl)difluoromethyl)phosphonic acid]	> 10 µM	0.3 to 3 µM
CC(=O)N1CC[C@H]2CC[C@@H](C(=O)N(C)c3ccc4nnccc4c3)N2C(=O)[C@@H](NC(=O)c2ccc3cnc(C(F)(F)P(=O)(O)O)cc3c2)C1 [Compound 119, ((6-(((5S,8S,10aR)-3-acetyl-8-(cinnolin-6-yl(methyl)carbamoyl)-6-oxodecahydropyrrolo[1,2-a][1,5]diazocin-5-yl)carbamoyl)isoquinolin-3-yl)difluoromethyl)phosphonic acid]	> 10 µM	0.3 to 3 µM
CC(=O)N1CC[C@H]2CC[C@@H](C(=O)N(C)c3ccc4nnccc4c3)N2C(=O)[C@@H](NC(=O)c2ccc3ccc(C(F)(F)P(=O)(O)O)nc3c2)C1 [Compound 120, ((7-(((5S,8S,10aR)-3-acetyl-8-(cinnolin-6-yl(methyl)carbamoyl)-6-oxodecahydropyrrolo[1,2-a][1,5]diazocin-5-yl)carbamoyl)quinolin-2-yl)difluoromethyl)phosphonic acid]	> 10 µM	3 to 30 µM
CC(=O)N1CC[C@H]2CC[C@@H](C(=O)Nc3ccc(-c4ccccc4)cc3)N2C(=O)[C@@H](NC(=O)/C=C/c2ccc(C(F)(F)P(=O)(O)O)cc2)C1 [Compound 121, ((4-((E)-3-(((5S,8S,10aR)-8-([1,1′-biphenyl]-4-ylcarbamoyl)-3-acetyl-6-oxodecahydropyrrolo[1,2-a][1,5]diazocin-5-yl)amino)-3-oxoprop-1-en-1-yl)phenyl)difluoromethyl)phosphonic acid]	> 10 µM	3 to 30 µM
CC(=O)N1CC[C@H]2CC[C@@H](C(=O)N3CC(c4cccnc4)C3)N2C(=O)[C@@H](NC(=O)c2cc3cc(C(F)(F)P(=O)(O)O)ccc3s2)C1 [Compound 122, ((2-(((5S,8S,10aR)-3-acetyl-6-oxo-8-(3-(pyridin-3-yl)azetidine-1-carbonyl)decahydropyrrolo[1,2-a][1,5]diazocin-5-yl)carbamoyl)benzo[b]thiophen-5-yl)difluoromethyl)phosphonic acid]	≤ 0.1 µM	0.3 to 3 µM
CC(=O)N1CC[C@H]2CC[C@@H](C(=O)N(C)c3ccc(C#N)cc3)N2C(=O)[C@@H](NC(=O)c2cc3cc(C(F)(F)P(=O)(O)O)ccc3s2)C1 [Compound 123, ((2-(((5S,8S,10aR)-3-acetyl-8-((4-cyanophenyl)(methyl)carbamoyl)-6-oxodecahydropyrrolo[1,2-a][1,5]diazocin-5-yl)carbamoyl)benzo[b]thiophen-5-yl)difluoromethyl)phosphonic acid]	1 to 10 µM	3 to 30 µM
CC(=O)N1CC[C@H]2CC[C@@H](C(=O)N3C[C@H](c4ccccc4)[C@@H](C#N)C3)N2C(=O)[C@@H](NC(=O)c2cc3cc(C(F)(F)P(=O)(O)O)ccc3s2)C1 [Compound 124, ((2-(((5S,8S,10aR)-3-acetyl-8-((3R,4S)-3-cyano-4-phenylpyrrolidine-1-carbonyl)-6-oxodecahydropyrrolo[1,2-a][1,5]diazocin-5-yl)carbamoyl)benzo[b]thiophen-5-yl)difluoromethyl)phosphonic acid]	1 to 10 µM	≤ 0.3 µM
CC(=O)N1CC[C@H]2CC[C@@H](C(=O)N(C)c3ccc(OCCN(C)C)cc3)N2C(=O)[C@@H](NC(=O)c2cc3cc(C(F)(F)P(=O)(O)O)ccc3s2)C1 [Compound 125, ((2-(((5S,8S,10aR)-3-acetyl-8-((4-(2-(dimethylamino)ethoxy)phenyl)(methyl)carbamoyl)-6-oxodecahydropyrrolo[1,2-a][1,5]diazocin-5-yl)carbamoyl)benzo[b]thiophen-5-yl)difluoromethyl)phosphonic acid]	1 to 10 µM	0.3 to 3 µM
CC(=O)N1CC[C@H]2CC[C@@H](C(=O)NC3COc4ccc(Cl)cc4C3)N2C(=O)[C@@H](NC(=O)c2cc3cc(C(F)(F)P(=O)(O)O)ccc3s2)C1 (stereo partly drawn) [Compound 127, ((2-(((5S,8S,10aR)-3-acetyl-8-((6-chlorochroman-3-yl)carbamoyl)-6-oxodecahydropyrrolo[1,2-a][1,5]diazocin-5-yl)carbamoyl)benzo[b]thiophen-5-yl)difluoromethyl)phosphonic acid]	0.1 to 1 µM	0.3 to 3 µM
CC(=O)N1CC[C@H]2CC[C@@H](C(=O)N3CC(C(=O)N4CCCCC4)C3)N2C(=O)[C@@H](NC(=O)c2cc3cc(C(F)(F)P(=O)(O)O)ccc3[nH]2)C1 [Compound 128, ((2-(((5S,8S,10aR)-3-acetyl-6-oxo-8-(3-(piperidine-1-carbonyl)azetidine-1-carbonyl)decahydropyrrolo[1,2-a][1,5]diazocin-5-yl)carbamoyl)-1H-indol-5-yl)difluoromethyl)phosphonic acid]	0.1 to 1 µM	0.3 to 3 µM

Second part, the compound after the results:

IC50 [1]	IC50 [2]	Structure (SMILES)
1 to 10 µM	0.3 to 3 µM	CC(=O)N1CC[C@H]2CC[C@@H](C(=O)N3CCC[C@H]3Cc3cccnc3)N2C(=O)[C@@H](NC(=O)c2cc3cc(C(F)(F)P(=O)(O)O)ccc3s2)C1 [Compound 126, ((2-(((5S,8S,10aR)-3-acetyl-6-oxo-8-((S)-2-(pyridin-3-ylmethyl)pyrrolidine-1-carbonyl)decahydropyrrolo[1,2-a][1,5]diazocin-5-yl)carbamoyl)benzo[b]thiophen-5-yl)difluoromethyl)phosphonic acid]
1 to 10 µM	0.3 to 3 µM	CC(=O)N1CC[C@H]2CC[C@@H](C(=O)N3CCC[C@@H]3Cc3ccccc3)N2C(=O)[C@@H](NC(=O)c2cc3cc(C(F)(F)P(=O)(O)O)ccc3[nH]2)C1 [Compound 129, ((2-(((5S,8S,10aR)-3-acetyl-8-((R)-2-benzylpyrrolidine-1-carbonyl)-6-oxodecahydropyrrolo[1,2-a][1,5]diazocin-5-yl)carbamoyl)-1H-indol-5-yl)difluoromethyl)phosphonic acid]
1 to 10 µM	0.3 to 3 µM	CC(=O)N1CC[C@H]2CC[C@@H](C(=O)N3CCCC3Cc3ccc(F)cc3)N2C(=O)[C@@H](NC(=O)c2cc3cc(C(F)(F)P(=O)(O)O)ccc3[nH]2)C1 (stereo partly drawn) [Compound 130, ((2-(((5S,8S,10aR)-3-acetyl-8-(2-(4-fluorobenzyl)pyrrolidine-1-carbonyl)-6-oxodecahydropyrrolo[1,2-a][1,5]diazocin-5-yl)carbamoyl)-1H-indol-5-yl)difluoromethyl)phosphonic acid]
1 to 10 µM	0.3 to 3 µM	COc1ccc(CC2CCCN2C(=O)[C@@H]2CC[C@@H]3CCN(C(C)=O)C[C@H](NC(=O)c4cc5cc(C(F)(F)P(=O)(O)O)ccc5[nH]4)C(=O)N32)cc1 (stereo partly drawn) [Compound 131, ((2-(((5S,8S,10aR)-3-acetyl-8-(2-(4-methoxybenzyl)pyrrolidine-1-carbonyl)-6-oxodecahydropyrrolo[1,2-a][1,5]diazocin-5-yl)carbamoyl)-1H-indol-5-yl)difluoromethyl)phosphonic acid]
1 to 10 µM	0.3 to 3 µM	CC(=O)N1CC[C@H]2CC[C@@H](C(=O)N3CCCC3Cc3cccc(Cl)c3)N2C(=O)[C@@H](NC(=O)c2cc3cc(C(F)(F)P(=O)(O)O)ccc3[nH]2)C1 (stereo partly drawn) [Compound 132, ((2-(((5S,8S,10aR)-3-acetyl-8-(2-(3-chlorobenzyl)pyrrolidine-1-carbonyl)-6-oxodecahydropyrrolo[1,2-a][1,5]diazocin-5-yl)carbamoyl)-1H-indol-5-yl)difluoromethyl)phosphonic acid]
1 to 10 µM	0.3 to 3 µM	CC(=O)N1CC[C@H]2CC[C@@H](C(=O)N3CCCC3Cc3ccccc3F)N2C(=O)[C@@H](NC(=O)c2cc3cc(C(F)(F)P(=O)(O)O)ccc3[nH]2)C1 (stereo partly drawn) [Compound 133, ((2-(((5S,8S,10aR)-3-acetyl-8-(2-(2-fluorobenzyl)pyrrolidine-1-carbonyl)-6-oxodecahydropyrrolo[1,2-a][1,5]diazocin-5-yl)carbamoyl)-1H-indol-5-yl)difluoromethyl)phosphonic acid]
1 to 10 µM	0.3 to 3 µM	CC(=O)N1CC[C@H]2CC[C@@H](C(=O)N(C)C3CCCCC3)N2C(=O)[C@@H](NC(=O)c2cc3cc(C(F)(F)P(=O)(O)O)ccc3[nH]2)C1 [Compound 134]
